Measurements from ChEMBL document CHEMBL1649577, “Influence of recombination on development of mutational resistance to linezolid in Enterococcus faecalis JH2-2” (2009).
≈ marks a conversion by molar mass, not a printed value.

How the values were obtained:
Type in all cases: functional
[1] = system: Enterococcus faecalis; experiment: Antimicrobial activity against recombination-deficient Enterococcus faecalis JH2-2 recA harboring nucleotides at position 2576 in rrlA 2576T, rrlB 2576G, rrlC 2576T and rrlD 2576T after 10, 11 passages under Linezolid selective pressure by agar dilution method
[2] = system: Enterococcus faecalis; experiment: Antimicrobial activity against Enterococcus faecalis JH2-2 harboring nucleotides at position 2576 in rrlA 2576T, rrlB 2576G, rrlC 2576G/T and rrlD 2576T after 6, 8 passages under Linezolid selective pressure by agar dilution method
[3] = system: Enterococcus faecalis; experiment: Antimicrobial activity against Enterococcus faecalis JH2-2 harboring nucleotides at position 2576 in rrlA 2576T, rrlB 2576G, rrlC 2576T and rrlD 2576T after 9, 10, 11 passages under Linezolid selective pressure by agar dilution method

In the case of `CC(=O)NC[C@H]1CN(c2ccc(N3CCOCC3)c(F)c2)C(=O)O1` [LINEZOLID], the MIC [1] is reported as 32 µg/mL, the MIC [2] is reported as 32 µg/mL (≈ 94.9 µM) and the MIC [3] is reported as 64 µg/mL (≈ 190 µM).
